Results on 24 molecules are retold here after ChEMBL document CHEMBL1201862, “PubChem BioAssay data set” (2004).

Some test systems named below: DMS-273; DLD-1; SNB-78; XF498; KM-20L2; HOP-18; DMS-114; LXFL 529; RXF 631.
Holding throughout (test): NCI tumour cell line growth inhibition, 48 h

Molecules are shown by their SMILES.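 Interpolation was linear, between the two tested concentrations surrounding the appropriate level; five concentrations were tested over 48 hours in 96-well plates. GI50 is the concentration that inhibits growth by half.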 Active and inactive are the calls of the source. Cut-off read from the data, not from the text of the source: active = GI50 up to about 1.1 µM and inactive = higher. Where only a bound is given, the exact number is not on record here.

Turning to `CCOC(=O)C1Cc2ccc3c4c(ccc(c24)C1)CC(C(=O)OCC)C3`, the GI50 with DMS-273, in the test with DLD-1, with SNB-78, with XF498, with KM-20L2 and in the test on HOP-18 was > 100 µM (inactive) each time. Also, the GI50 with DMS-114 was > 100 µM (inactive).
For the molecule `CCOC(=O)c1nc(-c2ccccc2)oc1OCC`, the GI50 is 90.2 µM (inactive) with DMS-273; > 100 µM (inactive) in the test on DLD-1; > 100 µM (inactive) with SNB-78; 21.2 µM (inactive) in the test with XF498; > 100 µM (inactive) with KM-20L2; > 100 µM (inactive) with HOP-18. The GI50 with LXFL 529 and in the test with DMS-114 was > 100 µM (inactive) throughout.
With `CCOC(=O)NC(=O)c1cn(CC(=O)NCC(=O)NCC(=O)NCCCN2CCN(CCCNC(=O)CNC(=O)CNC(=O)Cn3cc(C(=O)NC(=O)OCC)c(=O)[nH]c3=O)CC2)c(=O)[nH]c1=O`, the GI50 in the test on DMS-273, in the test with DLD-1, in the test with SNB-78, in the test with RXF 631, in the test with XF498 and with KM-20L2 was > 100 µM (inactive) in each case. The GI50 in the test with HOP-18, in the test on LXFL 529 and in the test with DMS-114 was > 100 µM (inactive) each time.
With `CCCCCCCCCCCCCC(=O)OC(/C=C/C(C)C)C(O)C(O)C(OC)C(=O)NC1CCCCN(C)C1=O` (stereo not drawn), the GI50 in the test on DMS-273 is 0.817 µM (active); in the test on DLD-1 it was 1.56 µM (inactive); in the test on SNB-78, 4.8 µM (inactive); in the test with RXF 631 it was 1.18 µM (inactive); with KM-20L2 it was 2.94 µM (inactive); with HOP-18 it was 3.54 µM (inactive). In addition, the GI50 is 2.97 µM (inactive) in the test on LXFL 529 and 1.2 µM (inactive) in the test on DMS-114.
As to `Cc1cc(O)nc(NNC(C#N)c2c(O)ccc3ccccc23)n1` (stereo not drawn), the GI50 in the test on DMS-273 is 3.87 µM (inactive); in the test on DLD-1 it was 3.42 µM (inactive); in the test with SNB-78, 19.3 µM (inactive); in the test with KM-20L2, 24.8 µM (inactive); with HOP-18, 4.49 µM (inactive); with LXFL 529, 8.79 µM (inactive). Moreover, in the test with DMS-114, the GI50 was 2.87 µM (inactive).
For the molecule `COc1ccc2c(=O)c([Se]c3coc4cc(OC)ccc4c3=O)coc2c1`, the GI50 in the test on DMS-273 is 53.2 µM (inactive); in the test on DLD-1, 36.6 µM (inactive); with SNB-78 it was 22.7 µM (inactive); in the test with XF498, > 100 µM (inactive); in the test with KM-20L2, > 100 µM (inactive); in the test on HOP-18, > 100 µM (inactive). In addition, the GI50 was 32.5 µM (inactive) with LXFL 529 and 17.4 µM (inactive) in the test on DMS-114.
On to `COc1ccc(C(=C[N+](=O)[O-])c2ccc(OC)cc2)cc1`, for which the GI50 in the test on DMS-273 was 2.74 µM (inactive); in the test with DLD-1, 16.7 µM (inactive); with SNB-78, 14.7 µM (inactive); with RXF 631, 14 µM (inactive); with KM-20L2, 10.6 µM (inactive); in the test on HOP-18, > 100 µM (inactive). In addition, the GI50 in the test on LXFL 529 is 16.2 µM (inactive); with DMS-114, 4.13 µM (inactive).
`N/N=C(/C(=O)Nc1cccc(Cl)c1)C(C(=O)c1ccc(O)cc1O)C1OC(=O)c2ccccc21` (stereo not drawn): the GI50 in the test on DMS-273 is 65.9 µM (inactive); in the test on SNB-78, > 100 µM (inactive); in the test on KM-20L2, > 100 µM (inactive); in the test on LXFL 529, > 100 µM (inactive); in the test with DMS-114, > 100 µM (inactive).
For the molecule `O=C(/C=C\c1cccc2ccccc12)c1ccc(Br)cc1`, the GI50 was 16.7 µM (inactive) in the test on DMS-273; 20.5 µM (inactive) in the test with DLD-1; 20.6 µM (inactive) with SNB-78; 16.3 µM (inactive) in the test on KM-20L2; 19.2 µM (inactive) in the test on HOP-18; 18.1 µM (inactive) in the test on LXFL 529. Moreover, the GI50 in the test with DMS-114 is 15 µM (inactive).
On to `O=C(Nc1ccc(Sc2ccc(/N=N/c3c(O)c(S(=O)(=O)O)cc4cc(S(=O)(=O)O)ccc34)cc2)cc1)c1ccc(/N=N/c2c(O)ccc3c(S(=O)(=O)O)cc(S(=O)(=O)O)cc23)cc1`, for which the GI50 in the test with DMS-273 was 25.9 µM (inactive); in the test on DLD-1, 37.7 µM (inactive); in the test on SNB-78, 36.4 µM (inactive); in the test on RXF 631, 41.3 µM (inactive); in the test on XF498, 28.2 µM (inactive); in the test on KM-20L2, 58.7 µM (inactive). In addition, the GI50 with HOP-18 is 33 µM (inactive); in the test on LXFL 529, 25.2 µM (inactive).
On to `COc1cc2c(cc1OC)C1(c3ccccc3)ON=C(c3ccccc3)N1CS2` (stereo not drawn), for which the GI50 in the test with DMS-273, with DLD-1, in the test on SNB-78, in the test on RXF 631, in the test on XF498 and in the test on KM-20L2 was > 100 µM (inactive) throughout. Moreover, the GI50 with HOP-18, in the test on LXFL 529 and in the test with DMS-114 was > 100 µM (inactive) throughout.
Regarding `CCCCOP1(=O)CC(C)=C(Cl)C(C)(OC)C1` (stereo not drawn), the GI50 in the test on DMS-273 is > 100 µM (inactive); in the test with DLD-1, 44.8 µM (inactive); in the test with SNB-78, > 100 µM (inactive); with XF498, > 100 µM (inactive); with KM-20L2 it was > 100 µM (inactive); in the test on LXFL 529, 45.2 µM (inactive).
With `O=C1CCN2CCC(=O)c3c2c(cc2ccccc32)N1`, the GI50 was > 100 µM (inactive) in the test with DMS-273; > 100 µM (inactive) in the test with DLD-1; > 100 µM (inactive) in the test with SNB-78; 26.8 µM (inactive) in the test on XF498; > 100 µM (inactive) in the test on KM-20L2; > 100 µM (inactive) in the test on LXFL 529. The GI50 with DMS-114 is > 100 µM (inactive).
As for `COC(=O)CCCCCOS(=O)(=O)c1ccc(C)cc1`, the GI50 in the test with DMS-273, in the test with DLD-1, in the test on SNB-78, with RXF 631, with XF498 and with KM-20L2 was > 100 µM (inactive) throughout. In addition, the GI50 with HOP-18, in the test with LXFL 529 and in the test on DMS-114 was > 100 µM (inactive) each time.
As to `COC(=O)C1CCC(C)CC1=O` (stereo not drawn), the GI50 with DMS-273, in the test with DLD-1, with SNB-78, in the test with RXF 631, in the test on XF498 and in the test with LXFL 529 was > 100 µM (inactive) throughout. Besides, in the test with DMS-114, the GI50 was > 100 µM (inactive).
Take `COC1=CC(=O)c2c(O)c3c(c(O)c2C1=O)C=C(C)OC3O` (stereo not drawn): the GI50 in the test with DMS-273 was 1.01 µM (active); in the test with DLD-1, 0.665 µM (active); with SNB-78, 1.73 µM (inactive); in the test with XF498, 1.84 µM (inactive); with KM-20L2, 0.365 µM (active); in the test on LXFL 529, 1.36 µM (inactive). The GI50 in the test on DMS-114 was 1.23 µM (inactive).
For the molecule `CCOC(=O)C1=C(Nc2ccccc2)SC/C1=N\NC(=O)Cc1ccccc1`, the GI50 in the test on DMS-273, with DLD-1, with SNB-78, with RXF 631, in the test with XF498 and in the test with KM-20L2 was > 100 µM (inactive) in each case. Moreover, the GI50 in the test with HOP-18 and in the test on LXFL 529 was > 100 µM (inactive) in each case.
In the case of `Cc1cc2occ(C)c(=O)c2c2c1OC(C)(C)S2`, the GI50 with DMS-273, in the test with DLD-1, in the test with XF498, in the test with KM-20L2, with HOP-18 and with LXFL 529 was > 100 µM (inactive) in each case. Besides, the GI50 in the test with DMS-114 was > 100 µM (inactive).
For `COc1cc2c3c(c1OC)-c1ccccc1C(C(OC(C)=O)c1ccccc1)C3N(C)CC2` (stereo not drawn), the GI50 was 19.3 µM (inactive) in the test with DMS-273; 5.97 µM (inactive) with DLD-1; 32.7 µM (inactive) in the test on SNB-78; 27.1 µM (inactive) in the test on KM-20L2; > 100 µM (inactive) in the test on HOP-18; 19.7 µM (inactive) in the test on LXFL 529. Further, the GI50 with DMS-114 was 28.4 µM (inactive).
Consider `CCCCCCCCCCCC(=O)OCC1OC(OC)C(NC(=O)N(CCCl)N=O)C(O)C1O` (stereo not drawn), for which the GI50 is 11.2 µM (inactive) with DMS-273; 17.5 µM (inactive) with DLD-1; 12.4 µM (inactive) in the test on XF498; 17 µM (inactive) in the test on KM-20L2; 34.3 µM (inactive) with HOP-18; 12.6 µM (inactive) with LXFL 529. In addition, the GI50 in the test on DMS-114 is 16.6 µM (inactive).
For `COc1ccc(CN(O)C2C(CO)OC(n3cc(I)c(=O)[nH]c3=O)C2O)cc1` (stereo not drawn), the GI50 with DMS-273, in the test on DLD-1, in the test with SNB-78, in the test with XF498, in the test on KM-20L2 and in the test on HOP-18 was > 100 µM (inactive) in each case. Besides, the GI50 in the test with LXFL 529 and in the test with DMS-114 was > 100 µM (inactive) each time.
Turning to `COc1cc(NCc2ccc3nc(N)nc(N)c3c2C)cc(OC)c1OC`, the GI50 in the test on DMS-273 was 0.025 µM (active); with DLD-1 it was 0.0253 µM (active); in the test on SNB-78, 5.42 µM (inactive); in the test with XF498, 2.57 µM (inactive); in the test with KM-20L2 it was 0.0347 µM (active); with HOP-18, 7.29 µM (inactive). Besides, the GI50 in the test with DMS-114 was 0.025 µM (active).
Take `COc1cc2c(c(OC)c1OC)-c1ccc(SC)c(=O)cc1[C@@H](NCc1cccc(C#N)c1)CC2`: the GI50 was 0.00647 µM (active) with DMS-273; 0.0245 µM (active) in the test with DLD-1; 0.0197 µM (active) in the test on SNB-78; 0.0075 µM (active) in the test with RXF 631; 0.0257 µM (active) in the test on XF498; 0.0131 µM (active) in the test with KM-20L2. In addition, the GI50 is 0.0147 µM (active) in the test with LXFL 529 and 0.0153 µM (active) in the test with DMS-114.
As to `O=C(NC12CC3CC(CC(C3)C1)C2)C(=O)c1c[nH]c2ccccc12`, the GI50 in the test with DMS-273 was 14.8 µM (inactive); in the test on SNB-78, 18 µM (inactive); in the test with XF498 it was 13.1 µM (inactive); in the test on KM-20L2 it was 5.94 µM (inactive); in the test with LXFL 529, 13.4 µM (inactive); in the test with DMS-114, 18 µM (inactive).
